Results as given in EP4644375A1, “SUBSTITUTED HYDROQUINOLINES FOR THE TREATMENT OF GLIOBLASTOMA MULTIFORME” (Molius Saglik Teknolojileri Anonim Sirketi, priority 2024, dated 2025).

Experiments:
[1] = tested on: U138-MG human glioma cell; test: Cell proliferation analysis (MTT); assay type: cell-based; conditions: 10 µM, two days, MTT; for activity at 10 µM / inhibition at 10 µM: Homo sapiens, 48 h
Procedure: (§1) U87-MG and U138-MG human glioma cell, were incubated with 10% fetal bovine serum (FBS) (Gibco, 10500-064), 1% L-glutamine (Gibco, 25030-024), in a humidified incubator with 5% CO2 at 37 °C. The cells were contained in DMEM High Glucose (Gibco, 41966-029) supplemented with 1% penicillin-streptomycin (P/S) (Gibco 15140-122) solution. The cytotoxic effects of the target compounds on U87-MG and U138-MG cell lines were assessed using the MTT (Thiazolyl Blue Tetrazolium Bromide) method. 7×10^3 cells were seeded into a 96-well plate in 100 µl DMEM High Glucose 10% FBS and 1% P/S. 24 hours after cell incubation, each target compound was added at a dose of 10 µM and the drug treatment was carried out for two days. After the incubation period, 10 µL of MTT solution was added to each well (5 mg/ml in PBS). After 2 hours, MTT solutions were removed from the wells. Then, 100 µl DMSO was added, and mixed to dissolve the formazan crystals. Cell proliferation was analysed by measuring the absorbance of dissolved formazan at a wavelength of 570 nm.
(§2) IC50 values were determined using the same method as above wherein the cells were treated with the target compounds at different doses.

U87-MG human glioma cell = test: Cell proliferation analysis (MTT); assay type: cell-based; conditions: 10 µM, two days, MTT; for activity at 10 µM / inhibition at 10 µM: Homo sapiens, U-87 MG, 48 h
Procedure: as §1, §2

SMILES	activity at 10 µM [1] [%]	inhibition at 10 µM [1] [%]	activity at 10 µM (U87-MG human glioma cell) [%]	inhibition at 10 µM (U87-MG human glioma cell) [%]	Cell Proliferation (%) [1] [%]	Cell Proliferation (%) (U87-MG human glioma cell)
O=C(COc1ccc2c(c1)CCC(=O)N2)N/N=C/C1CCCCC1 [TR-G029, (E)-N'-(cyclohexylmethylene)-2-((2-oxo-1,2,3,4-tetrahydroquinolin-6-yl)oxy)acetohydrazide]	68	32	82	18	–	–
CC(C)(C)c1ccc(COc2ccc3c(c2)CCC(=O)N3)cc1 [TR-G030, 6-((4-(tert-butyl)benzyl)oxy)-3,4-dihydroquinolin-2(1H)-one]	63	38	53	47	–	–
O=C1CCc2cc(OCCCCCCOC3CCCCO3)ccc2N1 (stereo not shown) [TR-G031, 6-((6-((tetrahydro-2H-pyran-2-yl)oxy)hexyl)oxy)-3,4-dihydroquinolin-2(1H)-one]	80	20	72	28	–	–
CCOC(=O)Cn1cc(COc2ccc3c(c2)CCC(=O)N3)nn1 [TR-G033, Ethyl 2-(4-(((2-oxo-1,2,3,4-tetrahydroquinolin-6-yl)oxy)methyl)-1H-1,2,3-triazol-1-yl)acetate]	71	29	82	19	–	–
O=C(COc1ccc2c(c1)CCC(=O)N2)N/N=C/c1ccccc1 [TR-G035, (E)-N'-benzylidene-2-((2-oxo-1,2,3,4-tetrahydroquinolin-6-yl)oxy)acetohydrazide]	74	26	86	14	–	–
O=C1CCc2cc(OC(=O)c3cc(C(F)(F)F)ccc3F)ccc2N1 [TR-G036, 2-oxo-1,2,3,4-tetrahydroquinolin-6-yl 2fluoro-5-(trifluoromethyl)benzoate]	81	19	68	32	–	–
CCN(C)C(=O)Oc1ccc2c(c1)CCC(=O)N2 [TR-G037, 2-oxo-1,2,3,4-tetrahydroquinolin-6-yl ethyl(methyl)carbamate]	65	35	91	9	–	–
O=C(COc1ccc2c(c1)CCC(=O)N2)N/N=C1\C(=O)Nc2ccccc21 [TR-G038, (Z)-2-((2-oxo-1,2,3,4-tetrahydroquinolin-6-yl)oxy)-N'-(2-oxoindolin-3-ylidene)acetohydrazide]	95	5	71	30	–	–
C=CC(=O)Oc1ccc2c(c1)CCC(=O)N2 [TR-G039, 2-oxo-1,2,3,4-tetrahydroquinolin-6-yl acrylate]	75	25	59	41	–	–
C=CC(=O)N(NC(=O)COc1ccc2c(c1)CCC(=O)N2)C(=O)C=C [TR-G040, N-acryloyl-N'-(2-((2-oxo-1,2,3,4-tetrahydroquinolin-6-yl)oxy)acetyl)acrylohydrazide]	–	2	–	9	98	91
Cc1ccc(COc2ccc3c(c2)CCC(=O)N3)cc1 [TR-G041, 6-((4-methylbenzyl)oxy)-3,4-dihydroquinolin-2(1H)-one]	74	26	70	30	–	–
O=C1CCc2cc(OS(=O)(=O)c3cccc(Cl)c3Cl)ccc2N1 [TR-G042, 2-oxo-1,2,3,4-tetrahydroquinolin-6-yl 2,3-dichlorobenzenesulfonate]	–	17	–	31	83	70
CN1CCN(c2ccc(NC(=O)COc3ccc4c(c3)CCC(=O)N4)cc2)CC1 [TR-G043, N-(4-(4-methylpiperazin-1-yl)phenyl)-2-((2-oxo-1,2,3,4-tetrahydroquinolin-6-yl)oxy)acetamide]	74	26	73	27	–	–
CN1C(=O)/C(=N\NC(=O)COc2ccc3c(c2)CCC(=O)N3)c2cc(F)ccc21 [TR-G047, (Z)-N'-(5fluoro-1-methyl-2-oxoindolin-3-ylidene)-2-((2-oxo-1,2,3,4-tetrahydroquinolin-6-yl)oxy)acetohydrazide]	62	38	77	23	–	–
O=C1CCc2cc(OS(=O)(=O)c3ccc(Br)cc3)ccc2N1 [TR-G048, 2-oxo-1,2,3,4-tetrahydroquinolin-6-yl 4-bromobenzenesulfonate]	61	39	69	31	–	–
O=C1CCc2cc(OCCCN3C(=O)c4ccccc4C3=O)ccc2N1 [TR-G049, 2-(3-((2-oxo-1,2,3,4-tetrahydroquinolin-6-yl)oxy)propyl)isoindoline-1,3-dione]	–	37	–	24	63	76
O=C(COc1ccc2c(c1)CCC(=O)N2)N/N=C1\C(=O)Nc2ccc(F)cc21 [TR-G050, (Z)-N'-(5-fluoro-2-oxoindolin-3-ylidene)-2-((2-oxo-1,2,3,4-tetrahydroquinolin-6-yl)oxy)acetohydrazide]	54	46	69	31	–	–
O=C1CCc2cc(OCC3CC(c4ccc(F)cc4)=NO3)ccc2N1 (stereo not shown) [TR-G051, 6-((3-(4-fluorophenyl)-4,5-dihydroisoxazol-5-yl)methoxy)-3,4-dihydroquinolin-2(1H)-one]	67	33	79	21	–	–
CC(C)CCn1cc(COc2ccc3c(c2)CCC(=O)N3)nn1 [TR-G052, 6-((1-isopentyl-1H-1,2,3-triazol-4-yl)methoxy)-3,4-dihydroquinolin-2(1H)-one]	52	48	85	15	–	–
Cc1cn(-c2cc(NC(=O)COc3ccc4c(c3)CCC(=O)N4)cc(C(F)(F)F)c2)cn1 [TR-G054, N-(3-(4-methyl-1H-imidazol-1-yl)-5-(trifluoromethyl)phenyl)-2-((2-oxo-1,2,3,4-tetrahydroquinolin-6-yl)oxy)acetamide]	79	21	84	16	–	–
O=C(COc1ccc2c(c1)CCC(=O)N2)N/N=C/c1ccc([N+](=O)[O-])cc1 [TR-G055, (E)-N'-(4-nitrobenzylidene)-2-((2-oxo-1,2,3,4-tetrahydroquinolin-6-yl)oxy)acetohydrazide]	92	8	85	15	–	–
O=C(COc1ccc2c(c1)CCC(=O)N2)N/N=C1\C(=O)Nc2ccc([N+](=O)[O-])cc21 [TR-G056, (Z)-N'-(5-nitro-2-oxoindolin-3-ylidene)-2-((2-oxo-1,2,3,4-tetrahydroquinolin-6-yl)oxy)acetohydrazide]	83	17	99	1	–	–
